From ChEMBL document CHEMBL1201862, “PubChem BioAssay data set” (2004)
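Protocol summary: plate cells (96-well), add compound at 5 concentrations, incubate 48 h, interpolate endpoints linearly. Abbreviation: GI50, concentration required for 50% inhibition of growth.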 Active and inactive are the calls of the source. No stated cut-off is given here; in the data, active = GI50 up to about 1.1 µM and inactive = higher.

How the values were obtained:
Experiment in all cases: NCI tumour cell line growth inhibition, 48 h
BT-549 = tested on: BT-549
OVCAR-4 = tested on: OVCAR-4
NCI/ADR-RES = tested on: NCI/ADR-RES
MDA-MB-435 = tested on: MDA-MB-435
NCI-H226 = tested on: NCI-H226
ACHN = tested on: ACHN
Hs-578T = tested on: Hs-578T
SW-620 = tested on: SW-620
MDA-N = tested on: MDA-N
786-0 = tested on: 786-0
MDA-MB-231 = tested on: MDA-MB-231
U-251 = tested on: U-251
K562 = tested on: K562
MCF7 = tested on: MCF7
OVCAR-8 = tested on: OVCAR-8
HOP-62 = tested on: HOP-62
RXF 393 = tested on: RXF 393
OVCAR-5 = tested on: OVCAR-5
HOP-92 = tested on: HOP-92

SMILES	GI50 (BT-549)	GI50 (OVCAR-4)	GI50 (NCI/ADR-RES)	GI50 (MDA-MB-435)	GI50 (NCI-H226)	GI50 (ACHN)	GI50 (Hs-578T)	GI50 (SW-620)	GI50 (MDA-N)	GI50 (786-0)	GI50 (MDA-MB-231)	GI50 (U-251)	GI50 (K562)	GI50 (MCF7)	GI50 (OVCAR-8)	GI50 (HOP-62)	GI50 (RXF 393)	GI50 (OVCAR-5)	GI50 (HOP-92)
CN(C)CCNC1=Nc2ccccc2C(=S)N2CSCC12 (centres undefined)	> 100 µM (inactive)	> 100 µM (inactive)	> 100 µM (inactive)	> 100 µM (inactive)	> 100 µM (inactive)	> 100 µM (inactive)	> 100 µM (inactive)	> 100 µM (inactive)	> 100 µM (inactive)	> 100 µM (inactive)	> 100 µM (inactive)	> 100 µM (inactive)	> 100 µM (inactive)	> 100 µM (inactive)	> 100 µM (inactive)	> 100 µM (inactive)	59.3 µM (inactive)	> 100 µM (inactive)	
COC(=O)C(COC(C)=O)NC(=O)/C=C/c1ccc(O)c(OC(C)=O)c1 (centres undefined)	> 100 µM (inactive)	70.8 µM (inactive)	75.3 µM (inactive)	> 100 µM (inactive)	> 100 µM (inactive)	74 µM (inactive)	> 100 µM (inactive)	31 µM (inactive)	> 100 µM (inactive)	55.8 µM (inactive)	30.1 µM (inactive)	37 µM (inactive)	44.6 µM (inactive)	> 100 µM (inactive)	58.1 µM (inactive)	49.3 µM (inactive)		> 100 µM (inactive)	83.4 µM (inactive)
N#Cc1c(-c2ccccc2)cc(-c2ccccc2)n(C2OCC(O)C(O)C2O)c1=S (centres undefined)	16.6 µM (inactive)	24.5 µM (inactive)	32.4 µM (inactive)	19 µM (inactive)	16.9 µM (inactive)	18.3 µM (inactive)	29.6 µM (inactive)	16.5 µM (inactive)	17.3 µM (inactive)	25.7 µM (inactive)	0.946 µM (active)	15.3 µM (inactive)	39 µM (inactive)	20.1 µM (inactive)	20.8 µM (inactive)	25.6 µM (inactive)	18.4 µM (inactive)	24.8 µM (inactive)	
Cc1ccc(S(=O)(=O)NC(=O)Nc2ccc(C(=O)O)cc2)cc1	> 100 µM (inactive)	> 100 µM (inactive)	> 100 µM (inactive)			> 100 µM (inactive)	> 100 µM (inactive)	> 100 µM (inactive)	> 100 µM (inactive)	> 100 µM (inactive)	> 100 µM (inactive)	> 100 µM (inactive)	> 100 µM (inactive)	> 100 µM (inactive)	> 100 µM (inactive)	> 100 µM (inactive)	> 100 µM (inactive)	> 100 µM (inactive)	> 100 µM (inactive)
Cc1ccc(/C=C2/N/C(=N\N=C/c3ccccc3)NC2=O)cc1	29.9 µM (inactive)	14.8 µM (inactive)	33.3 µM (inactive)	24.2 µM (inactive)	> 100 µM (inactive)	17.3 µM (inactive)	25.8 µM (inactive)	41.6 µM (inactive)	28.2 µM (inactive)	20.3 µM (inactive)	42.1 µM (inactive)	26 µM (inactive)	34.3 µM (inactive)	28.8 µM (inactive)	42.5 µM (inactive)	54.6 µM (inactive)	26.5 µM (inactive)	> 100 µM (inactive)	
COc1ccccc1CNCCCCCNCCCCCCCCCCNCCCCCNCc1ccccc1OC	23.5 µM (inactive)	79.1 µM (inactive)		57.4 µM (inactive)	18.1 µM (inactive)	> 100 µM (inactive)	1.05 µM (active)	34.4 µM (inactive)	18.2 µM (inactive)	23.9 µM (inactive)	16.2 µM (inactive)	18.9 µM (inactive)	13.6 µM (inactive)	18 µM (inactive)	25.6 µM (inactive)	16 µM (inactive)	31 µM (inactive)		34.5 µM (inactive)
Clc1ccc(-c2nc(-c3ccc(Cl)cc3)[s+]s2)cc1	72.9 µM (inactive)	27.7 µM (inactive)	39.6 µM (inactive)	74.1 µM (inactive)		38.6 µM (inactive)	46.7 µM (inactive)	55.8 µM (inactive)	> 100 µM (inactive)	38 µM (inactive)	46.9 µM (inactive)	30.4 µM (inactive)	24.3 µM (inactive)	37.3 µM (inactive)	39.8 µM (inactive)	34 µM (inactive)	84.7 µM (inactive)	> 100 µM (inactive)	
COc1ccc(NC(C)=O)c(C(=O)CCNC(C)=O)c1	> 100 µM (inactive)	> 100 µM (inactive)	> 100 µM (inactive)	> 100 µM (inactive)	> 100 µM (inactive)	> 100 µM (inactive)	> 100 µM (inactive)	> 100 µM (inactive)	> 100 µM (inactive)	> 100 µM (inactive)	> 100 µM (inactive)	> 100 µM (inactive)		> 100 µM (inactive)	> 100 µM (inactive)		> 100 µM (inactive)	> 100 µM (inactive)	> 100 µM (inactive)
C=CCC1(C(=O)OC)CCC/C(=N\O)C1 (centres undefined)	> 10 µM (inactive)	> 10 µM (inactive)	> 10 µM (inactive)	> 10 µM (inactive)		> 10 µM (inactive)	> 10 µM (inactive)	> 10 µM (inactive)	> 10 µM (inactive)	> 10 µM (inactive)	> 10 µM (inactive)	> 10 µM (inactive)	> 10 µM (inactive)	> 10 µM (inactive)	> 10 µM (inactive)	> 10 µM (inactive)			> 10 µM (inactive)
CC(C)(C)NC(=O)CCC1C(C(=O)NC(C)(C)C)C2(Cl)C(Cl)=C(Cl)C1(Cl)C2(Cl)Cl (centres undefined)	> 100 µM (inactive)	> 100 µM (inactive)	> 100 µM (inactive)	> 100 µM (inactive)	> 100 µM (inactive)	> 100 µM (inactive)	> 100 µM (inactive)	> 100 µM (inactive)	> 100 µM (inactive)	> 100 µM (inactive)	> 100 µM (inactive)	> 100 µM (inactive)	> 100 µM (inactive)	> 100 µM (inactive)	> 100 µM (inactive)	> 100 µM (inactive)	> 100 µM (inactive)	> 100 µM (inactive)	
N#Cc1nc(CCCN2C(=O)c3ccccc3C2=O)oc1N	> 100 µM (inactive)	> 100 µM (inactive)	> 100 µM (inactive)	> 100 µM (inactive)	> 100 µM (inactive)	> 100 µM (inactive)	> 100 µM (inactive)	> 100 µM (inactive)	> 100 µM (inactive)	> 100 µM (inactive)	> 100 µM (inactive)	> 100 µM (inactive)	> 100 µM (inactive)	> 100 µM (inactive)	> 100 µM (inactive)	> 100 µM (inactive)	> 100 µM (inactive)	> 100 µM (inactive)	
Cc1c(NC(=S)NN)c(=O)n(-c2ccccc2)n1C	> 100 µM (inactive)	> 100 µM (inactive)	> 100 µM (inactive)	> 100 µM (inactive)	1.58 µM (inactive)		93.8 µM (inactive)	> 100 µM (inactive)	> 100 µM (inactive)	> 100 µM (inactive)	0.0796 µM (active)	> 100 µM (inactive)	> 100 µM (inactive)	> 100 µM (inactive)	> 100 µM (inactive)	> 100 µM (inactive)	> 100 µM (inactive)	> 100 µM (inactive)	
COc1ccc2oc(=O)c(-c3cc4c(c(C)n3)c(=O)oc3ccc(OC)cc34)cc2c1	> 100 µM (inactive)		> 100 µM (inactive)	> 100 µM (inactive)	> 100 µM (inactive)	27.2 µM (inactive)	27.4 µM (inactive)	> 100 µM (inactive)	> 100 µM (inactive)	1.94 µM (inactive)	> 100 µM (inactive)	> 100 µM (inactive)	> 100 µM (inactive)	> 100 µM (inactive)	> 100 µM (inactive)	30.4 µM (inactive)	> 100 µM (inactive)		> 100 µM (inactive)
O=c1[nH]c(Nc2ccc(Br)c(C(F)(F)F)c2)nc2[nH]cnc12	62.7 µM (inactive)	47.1 µM (inactive)	> 100 µM (inactive)	30.7 µM (inactive)	47.5 µM (inactive)	43.4 µM (inactive)	13.1 µM (inactive)	57.9 µM (inactive)	34.4 µM (inactive)	40.1 µM (inactive)	63.8 µM (inactive)	36.1 µM (inactive)		51.5 µM (inactive)	42.9 µM (inactive)	48.8 µM (inactive)		32.3 µM (inactive)	26.4 µM (inactive)
C/C(=N\N=C(/S)N(C)C)c1cccnn1	0.869 µM (active)	0.608 µM (active)	0.521 µM (active)	1.42 µM (inactive)	0.849 µM (active)	0.0796 µM (active)	> 66.4 µM (inactive)	0.612 µM (active)	0.752 µM (active)	0.486 µM (active)	0.745 µM (active)	0.977 µM (active)	0.794 µM (active)	0.726 µM (active)	0.526 µM (active)	1.05 µM (active)	0.488 µM (active)	1.06 µM (active)	
CCN(CC)C(=S)SS(=O)(=O)c1ccc(NC(C)=O)cc1	39.3 µM (inactive)	20.4 µM (inactive)	28 µM (inactive)	17.1 µM (inactive)	> 59.7 µM (inactive)	36.1 µM (inactive)	45 µM (inactive)	16.7 µM (inactive)	27.6 µM (inactive)	17.5 µM (inactive)	17 µM (inactive)	18 µM (inactive)	33.9 µM (inactive)		15.7 µM (inactive)	18.1 µM (inactive)	15.2 µM (inactive)	24.5 µM (inactive)	19.8 µM (inactive)
